Laboratory results from patent publication US11332464B2, “Inhibitors of lysine gingipain” (priority 2014, dated 2022).
“And” between values parts separate entries of the source, which are not always exact repeats. Identical values can stand only once. “Also recorded” adds a separate entry of the source. Like-named read-outs stand apart in the source and are kept apart here.

What was measured:
Kgp = Kgp (Porphyromonas gingivalis, UniProt P72197); test: Lysine gingipain (Kgp) fluorogenic inhibition assay; format: biochemical
Description: The capacities of compounds of the present invention to inhibit the activity of lysine gingipain were measured in a fluorogenic assay similar to those described in Barret Biochemical Journal. 1980, 187(3), 909. The specific assay conditions were as follows. Buffer: pH=7.5, 100 mM Tris-HCl, 75 mM NaCl, 2.5 mM CaCl2, 10 mM cysteine, 1% DMSO after all additions. Protein: 0.1 nM Kgp, isolated from culture of Porphyromonas gingivalis, as described in Pike et al. J. Biol. Chem. 1994, 269(1), 406, and Potempa and Nguyen. Current Protocols in Protein Science. 2007, 21.20.1-21.20.27. Fluorogenic substrate: 10 uM Z-His-Glu-Lys-MCA. Time=90 minutes. Temperature=37° C. Each compound: 10 concentrations, starting at either 100 uM or 100 nM, with lower concentrations generated by serial 3-fold dilutions. By testing a range of concentrations for each compound, the concentration required to inhibit the activity of lysine gingipain by 50% (the “IC50”) was determined. Under the described assay conditions, signal-to-noise was excellent, and Z factor was greater than 0.6.

[1] = tested on: differentiated SH-SY5Y neuroblastoma cells; test: Gingipain-induced death of differentiated SH-SY5Y cells; format: cell-based; conditions: 100 nM Kgp and/or RgpB for 24 hours
Description: SH-SY5Y neuroblastoma cells were cultured and differentiated in the presence of 5 uM retinoic acid based on established methods [Saberi S., et al. Cell Mol Neurobiol 2013. 33: 747-751]. Differentiation into neuronal cells was verified by observation of neurite outgrowth. The differentiated cells were exposed to 100 nM Kgp and/or RgpB for 24 hours, in the presence or absence of Kgp inhibitors. Results were recorded using a digital microscope camera (FIG. 1C, FIG. 2C). Gingipains are toxic to cells while COR compounds prevent the cytotoxicity.

SHSY5Y cells = test: P. gingivalis-induced toxicity in SHSY5Y cells; format: cell-based; conditions: in vitro, compared to moxifloxacin
[2] = Kgp IC50 average, 0.1 nM Kgp, 10 uM Z-His-Glu-Lys-MCA, 90 minutes, 37° C.
[3] = read-out: Kgp IC50 average, 0.1 nM Kgp, 10 uM Z-His-Glu-Lys-MCA, 90 minutes, 37° C.

| SMILES | IC50 (Kgp; [2]) | other results |
| --- | --- | --- |
| NCCCCC(NC(=O)[C@@H]1CCCN(C(=O)CCc2ccccc2)C1)C(=O)c1nc2ccccc2s1 (single isomer, unassigned) [Compound 14] | 1 to 10 nM | – |
| NCCCCC(NC(=O)[C@@H]1CCCN(C(=O)CCc2ccccc2)C1)C(=O)c1nc2ccccc2s1 (single isomer, unassigned) [Compound 15] | – | IC50 (Kgp; [3]): 1 to 10 nM |
| NCCCC[C@H](NC(=O)C1CCCOC1)C(=O)c1nc2ccccc2s1 (single isomer, unassigned) [Compound 18] | 10 to 25 nM | – |
| NCCCC[C@H](NC(=O)C1CCCOC1)C(=O)c1nc2ccccc2s1 (single isomer, unassigned) [Compound 19] | – | IC50 (Kgp; [3]): 10 to 25 nM |
| NCCCC[C@H](NC(=O)C1CCCCO1)C(=O)c1nc2ccccc2s1 (single isomer, unassigned) [Compound 25] | 25 to 50 nM | – |
| NCCCC[C@H](NC(=O)C1CCCCO1)C(=O)c1nc2ccccc2s1 (single isomer, unassigned) [Compound 26] | – | IC50 (Kgp; [3]): 25 to 50 nM |
| NCCCC[C@H](NC(=O)C1CCCO1)C(=O)c1nc2ccccc2s1 (single isomer, unassigned) [Compound 34] | 1 to 10 nM | – |
| NCCCC[C@H](NC(=O)C1CCCO1)C(=O)c1nc2ccccc2s1 (single isomer, unassigned) [Compound 35] | – | IC50 (Kgp; [3]): 1 to 10 nM |
| NCCCC[C@H](NC(=O)c1ccccc1)C(=O)c1nc2ccccc2s1 [Compound 1, N-[(1S)-5-amino-1-(1,3-benzothiazole-2-carbonyl)pentyl]benzamide] | 50 to 100 nM and 25 to 50 nM | prevention of gingipain-induced death of differentiated SHSY-5Y cells [1]: effective at preventing cell death; also recorded: prevents gingipain-induced death |
| NCCCC[C@H](NC(=O)C1CCCCC1)C(=O)c1nc2ccccc2s1 [Compound 2, N-[(1S)-5-amino-1-(1,3-benzothiazole-2-carbonyl)pentyl]cyclohexanecarboxamide] | 1 to 10 nM and 10 to 25 nM | prevention of gingipain-induced death of differentiated SHSY-5Y cells [1]: effective at preventing cell death; also recorded: more effective; IC50 (Kgp; Kgp IC50, figure legend): 1 to 10 nM |
| NCCCC[C@H](NC(=O)[C@H]1CCCN(C(=O)CCc2ccccc2)C1)C(=O)c1nc2ccccc2s1 [Compound 3, (3S)—N-[(1S)-5-amino-1-(1,3-benzothiazole-2-carbonyl)pentyl]-1-(3-phenylpropanoyl)piperidine-3-carboxamide] | 10 to 25 nM | prevention of gingipain-induced death of differentiated SHSY-5Y cells [1]: does not; IC50 (Kgp; Kgp IC50, figure legend): 10 to 25 nM |
| NCCCC[C@H](NC(=O)[C@@H]1CCCN(C(=O)CCc2ccccc2)C1)C(=O)c1nc2ccccc2s1 [Compound 4, (3R)—N-[(1S)-5-amino-1-(1,3-benzothiazole-2-carbonyl)pentyl]-1-(3-phenylpropanoyl)piperidine-3-carboxamide] | 1 to 10 nM | prevention of gingipain-induced death of differentiated SHSY-5Y cells [1]: prevents gingipain-induced death; prevention of gingipain-induced death of differentiated SHSY-5Y cells ([1]; listed as 2-(N—[N-(3-phenylpropanoyl)-(R)-nipecotinyl]-(R)-lysinyl)-benzothiazole): effective at preventing cell death; IC50 (Kgp; Kgp IC50, figure legend): 1 to 10 nM |
| NCCCC[C@H](NC(=O)c1ccccc1C(F)(F)F)C(=O)c1nc2ccccc2s1 [Compound 7, N-[(1S)-5-amino-1-(1,3-benzothiazole-2-carbonyl)pentyl]-2-(trifluoromethyl)benzamide] | 25 to 50 nM | – |
| CC(=O)N1CCC[C@H](C(=O)N[C@@H](CCCCN)C(=O)c2nc3ccccc3s2)C1 [Compound 8, (3S)-1-acetyl-N-[(1S)-5-amino-1-(1,3-benzothiazole-2-carbonyl)pentyl]piperidine-3-carboxamide] | 10 to 25 nM | – |
| CC(=O)N1CCC[C@@H](C(=O)N[C@@H](CCCCN)C(=O)c2nc3ccccc3s2)C1 [Compound 9, (3R)-1-acetyl-N-[(1S)-5-amino-1-(1,3-benzothiazole-2-carbonyl)pentyl]piperidine-3-carboxamide] | 1 to 10 nM | – |
| CC(=O)N1CCC[C@H](C(=O)N[C@H](CCCCN)C(=O)c2nc3ccccc3s2)C1 [Compound 10, (3S)-1-acetyl-N-[(1R)-5-amino-1-(1,3-benzothiazole-2-carbonyl)pentyl]piperidine-3-carboxamide] | 10 to 25 nM | – |
| CC(=O)N1CCC[C@@H](C(=O)N[C@H](CCCCN)C(=O)c2nc3ccccc3s2)C1 [Compound 11, (3R)-1-acetyl-N-[(1R)-5-amino-1-(1,3-benzothiazole-2-carbonyl)pentyl]piperidine-3-carboxamide] | 1 to 10 nM | – |

| SMILES | IC50 (Kgp; [2]) | other results |
| --- | --- | --- |
| NCCCC[C@H](NC(=O)c1ccccn1)C(=O)c1nc2ccccc2s1 [Compound 12, N-[(1S)-5-amino-1-(1,3-benzothiazole-2-carbonyl)pentyl]pyridine-2-carboxamide] | 50 to 100 nM | – |
| NCCCC[C@H](NC(=O)c1ccncc1)C(=O)c1nc2ccccc2s1 [Compound 13, N-[(1S)-5-amino-1-(1,3-benzothiazole-2-carbonyl)pentyl]pyridine-4-carboxamide] | 25 to 50 nM | – |
| NCCCC[C@H](NC(=O)C1CCOCC1)C(=O)c1nc2ccccc2s1 [Compound 22, N-[(1S)-5-amino-1-(1,3-benzothiazole-2-carbonyl)pentyl]tetrahydropyran-4-carboxamide] | 10 to 25 nM | – |
| NCCCC[C@H](NC(=O)OCc1ccccc1)C(=O)c1nc2ccccc2s1 [Compound 23, Benzyl-N-[(1S)-5-amino-1-(1,3-benzothiazole-2-carbonyl)pentyl]carbamate] | 100 to 250 nM | – |
| NCCCC[C@H](NC(=O)C1CCCC1)C(=O)c1nc2ccccc2s1 [Compound 24, N-[(1S)-5-amino-1-(1,3-benzothiazole-2-carbonyl)pentyl]cyclo-pentanecarboxamide] | 1 to 10 nM | – |
| CC(=O)N1CCOC(C(=O)N[C@@H](CCCCN)C(=O)c2nc3ccccc3s2)C1 (stereo partly drawn) [Compound 29, 4-acetyl-N-[(1S)-5-amino-1-(1,3-benzothiazole-2-carbonyl)pentyl]morpholine-2-carboxamide] | 10 to 25 nM | – |
| NCCCC[C@H](NC(=O)c1cccnc1)C(=O)c1nc2ccccc2s1 [Compound 30, N-[(1S)-5-amino-1-(1,3-benzothiazole-2-carbonyl)pentyl]pyridine-3-carboxamide] | 25 to 50 nM | – |
| NCCCC[C@H](NC(=O)C1CCCc2ccccc21)C(=O)c1nc2ccccc2s1 (stereo partly drawn) [Compound 31, N-[(1S)-5-amino-1-(1,3-benzothiazole-2-carbonyl)pentyl]tetralin-1-carboxamide] | 10 to 25 nM | – |
| NCCCC[C@H](NC(=O)C1CCc2ccccc2C1)C(=O)c1nc2ccccc2s1 (stereo partly drawn) [Compound 32, N-[(1S)-5-amino-1-(1,3-benzothiazole-2-carbonyl)pentyl]tetralin-2-carboxamide] | 1 to 10 nM | – |
| CC1(C(=O)N[C@@H](CCCCN)C(=O)c2nc3ccccc3s2)CCCCC1 [Compound 33, N-[(1S)-5-amino-1-(1,3-benzothiazole-2-carbonyl)pentyl]-1-methyl-cyclohexanecarboxamide] | 1 to 10 nM | – |
| NCCCC[C@H](NC(=O)c1cncs1)C(=O)c1nc2ccccc2s1 [Compound 38, N-[(1S)-5-amino-1-(1,3-benzothiazole-2-carbonyl)pentyl]thiazole-5-carboxamide] | 10 to 25 nM | – |
| NCCCC[C@H](NC(=O)c1nccs1)C(=O)c1nc2ccccc2s1 [Compound 39, N-[(1S)-5-amino-1-(1,3-benzothiazole-2-carbonyl)pentyl]thiazole-2-carboxamide] | 50 to 100 nM | – |
| NCCCC[C@H](NC(=O)c1cccc(=O)[nH]1)C(=O)c1nc2ccccc2s1 [Compound 40, N-[(1S)-5-amino-1-(1,3-benzothiazole-2-carbonyl)pentyl]-6-oxo-1H-pyridine-2-carboxamide] | 25 to 50 nM | – |
| COC1(C(=O)N[C@@H](CCCCN)C(=O)c2nc3ccccc3s2)CCCCC1 [Compound 41, (S)—N-(6-amino-1-(benzo[d]thiazol-2-yl)-1-oxohexan-2-yl)-1-methoxycyclohexanecarboxamide] | 10 to 25 nM | – |
| NCCCC[C@H](NC(=O)C1CCCC1)C(=O)c1nccs1 [Compound 42, N-[(1S)-5-amino-1-(thiazole-2-carbonyl)pentyl]cyclopentanecarboxamide] | 50 to 100 nM | – |
| NCCCC[C@H](NC(=O)C1CCCC1)C(=O)COc1c(F)c(F)cc(F)c1F [Compound 43, N-[(1S)-5-amino-1-[2-(2,3,5,6-tetrafluorophenoxy)acetyl]pentyl]cyclo-pentanecarboxamide] | < 1 nM | protection of SHSY5Y cells from P. gingivalis-induced toxicity (SHSY5Y cells): protects SHSY5Y cells; Kgp IC50 (in words) (Kgp; irreversible covalent inhibitor): sub-nanomolar |
| NCCCC[C@H](NC(=O)C1CCCC1)C(=O)c1ccccn1 [Compound 44, N-[(1S)-5-amino-1-(pyridine-2-carbonyl)pentyl]cyclopentanecarboxamide] | > 250 nM | – |
